Data on 8 compounds can be found in patent US12473295B2, “Substituted straight chain spiro derivatives” (Janssen Pharmaceutica NV, priority 2019, dated 2025).

Each structure is given as a SMILES string. Counter-ions that a name gives are not always drawn.

In one data set the test system is OCI-AML3 cells. The experiment in a line: Proliferation assay (spheroid growth, 8 days), OCI-AML3. The data set is classed as cell-based, human. Particulars: Homo sapiens, OCI-AML-3, […], OCI-AML3, 8 days. Put shortly:
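Spheroid size on day 8, taken as live-cell imaging confluence, served as readout after 8-day compound exposure (0.3% DMSO, 37 °C, 5% CO2) in round-bottom low-attachment wells. Seeding was 200 cells for MOLM14 and OCI-AML3, 300 for KO-52. IC50 came from % effect versus DMSO and reference baseline, fitted with variable slope.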

Data set [1] is described as follows: Mouse PK (in vivo T1/2 and oral bioavailability). Particulars: fasted male CD-1 mice, formulating agent HP-β-CD; for half-life: single IV 0.5 or 1.0 mg/kg; for bioavailability: single PO 5 mg/kg. The procedure:
3) Mouse PK (In Vivo T1/2 and Oral Bioavailability)
In vivo pharmacokinetics (PK) were assessed in fasted male CD-1 mice (age 6-8 weeks) following a single intravenous (IV, 0.5 or 1.0 mg/kg administered at 2.5 ml/kg) or oral (PO, 5 mg/kg administered at 10 ml solution/kg) dose of test article formulated in a 20% (w:vol) HP-β-CD solution or in Pyrogen free water.
Plasma and/or whole blood samples were collected from the dorsal metatarsal vein at desired timepoints via serial capillary microsampling (approx. 0.03 mL) using EDTA as an anticoagulant. Concentrations of compound in the plasma and blood samples were analyzed using a qualified LC-MS/MS method. In silico analysis of main pharmacokinetic parameters was performed using WinNonlin (Phoenix™, version 6.1) or similar software. (Results see Table 4)

The next data set addresses hERG (Homo sapiens (Human), UniProt Q12809). The data set is described as follows: Effect on membrane potassium current IKr in hERG-transfected HEK293 cells, Protocol 2 (SyncroPatch 384PE). The data set is classed as cell-based. Particulars: Protocol 2, hERG-transfected HEK293 cells. The procedure: 8) Effect on the Membrane Potassium Current IKr in hERG Transfected Cell Lines
The compound, vehicle control and positive control were tested on hERG-transfected HEK293 cells. A human embryonic kidney cell line (HEK293) with a stable transfection of hERG (Zhou Z et al. Biophysical Journal 1998. 74, 230-241; McDonald T. V. et al, Nature 1997. 388, 289-292) was used (University of Wisconsin, Madison, USA). The cells were kept in culture in MEM (Minimum Essential Medium, Gibco) which was supplemented with (amounts indicated added to 500 ml MEM): 5 ml L-Glutamine-Penicillin-Streptomycin (Sigma), 50 ml Fetal Bovine serum (Bio-Whittaker), 5 ml Non-essential Amino Acids 100× (Gibco), 5 ml sodium pyruvate 100 mM (Gibco) and 4 ml geneticin 50 mg/ml (Gibco) using T175 flasks. The cells were incubated at 37° C. in 5% CO2 atmosphere (in air).
Cell Harvesting for Assay
Cells were harvested as described below using Accumax™ (Sigma) as the dissociating reagent. Cells were then resuspended in a mixture of 33% DMEM/F12 (Dulbecco's Modified Eagle Medium/Nutrient Mixture F-12—Sigma) media/67% extracellular physiological solution.
The flasks were washed twice carefully with ˜5-10 ml phosphate buffered saline (PBS) (Gibco™) containing 2 mM EDTA (Ethylenediaminetetraacetic acid) (Sigma). The cells were dissociated using ˜3 ml of Accumax™ (cell detachment solution) and incubated for ˜5 to 10 min. at 37° C. Cold external physiological solution (2-5 ml) was added and the flasks are incubated at ˜4° C. for 5-10 min. Then, the cell suspension in each flask was gently dissociated with a 5 ml pipette. The cell suspension was transferred to a low binding petri-dish (˜[…]). Each flask was washed with ˜additional 5 ml cold external physiological solution and this solution was also added to the petri-dish. The petri-dish was then incubated for another 5 to 10 minutes at ˜4° C. After another gentle dissociation of the cell suspension in the petri dish, the cells were transferred to a reservoir kept on an orbital shaker at 200 rpm at 16° C. Before experiments were performed, the cells recovered for ˜20 min.
A 10 mM solution of the compound was used and plated in a 384 well plate. Aliquots of the stock solutions are diluted with the recording solution (see section 3) using automated liquid handling (Biomek FXP; final DMSO concentration: 0.03 to 0.3%). A standard range of screening concentrations was used ranging from 1 μM to 30 μM.
A positive control (E-4031) was included within each run to evaluate the sensitivity of the assay.
External and Intracellular Solutions Used in the Experiments
In the table below the composition of the intracellular and external buffer solutions is shown in [mM] (“NMDG” means N-methyl-D-glucamine)
The whole cell patch clamp technique on transfected cells allows the study of ion-channels with no—or limited interference from other ion-channels. The effects of the compounds on the hERG current were studied with an automated planar patch clamp system, SyncroPatch 384PE (Obergrussberger et al, Journal of Laboratory Automation 2016. 21 (6). 779-793). All cells were recorded in the whole cell mode of the patch clamp technique. The module is incorporated in a liquid handling pipetting robot system, Biomek FXP, for application of cells and compounds, vehicle control and positive control.
The different concentrations of the compounds were applied in two cumulatively increasing concentrations for the compounds (1 μM and 10 μM, and 3 μM and 30 μM, respectively). The hERG current was determined as the maximal tail current at −30 mV and percent inhibition upon compound or vehicle and positive control addition was reported.
After cells are caught onto the individual holes of the recording chips using the chip fill solution, the seal is increased with the seal enhancer solution (increased [Ca^2+]; then the cells were washed twice with recording solution before using a pressure protocol to go into the whole cell mode. […]
(In general: The hERG channel carries a current that helps repolarise heart muscle cells.)

hERG, sequence (Q12809 whole entry): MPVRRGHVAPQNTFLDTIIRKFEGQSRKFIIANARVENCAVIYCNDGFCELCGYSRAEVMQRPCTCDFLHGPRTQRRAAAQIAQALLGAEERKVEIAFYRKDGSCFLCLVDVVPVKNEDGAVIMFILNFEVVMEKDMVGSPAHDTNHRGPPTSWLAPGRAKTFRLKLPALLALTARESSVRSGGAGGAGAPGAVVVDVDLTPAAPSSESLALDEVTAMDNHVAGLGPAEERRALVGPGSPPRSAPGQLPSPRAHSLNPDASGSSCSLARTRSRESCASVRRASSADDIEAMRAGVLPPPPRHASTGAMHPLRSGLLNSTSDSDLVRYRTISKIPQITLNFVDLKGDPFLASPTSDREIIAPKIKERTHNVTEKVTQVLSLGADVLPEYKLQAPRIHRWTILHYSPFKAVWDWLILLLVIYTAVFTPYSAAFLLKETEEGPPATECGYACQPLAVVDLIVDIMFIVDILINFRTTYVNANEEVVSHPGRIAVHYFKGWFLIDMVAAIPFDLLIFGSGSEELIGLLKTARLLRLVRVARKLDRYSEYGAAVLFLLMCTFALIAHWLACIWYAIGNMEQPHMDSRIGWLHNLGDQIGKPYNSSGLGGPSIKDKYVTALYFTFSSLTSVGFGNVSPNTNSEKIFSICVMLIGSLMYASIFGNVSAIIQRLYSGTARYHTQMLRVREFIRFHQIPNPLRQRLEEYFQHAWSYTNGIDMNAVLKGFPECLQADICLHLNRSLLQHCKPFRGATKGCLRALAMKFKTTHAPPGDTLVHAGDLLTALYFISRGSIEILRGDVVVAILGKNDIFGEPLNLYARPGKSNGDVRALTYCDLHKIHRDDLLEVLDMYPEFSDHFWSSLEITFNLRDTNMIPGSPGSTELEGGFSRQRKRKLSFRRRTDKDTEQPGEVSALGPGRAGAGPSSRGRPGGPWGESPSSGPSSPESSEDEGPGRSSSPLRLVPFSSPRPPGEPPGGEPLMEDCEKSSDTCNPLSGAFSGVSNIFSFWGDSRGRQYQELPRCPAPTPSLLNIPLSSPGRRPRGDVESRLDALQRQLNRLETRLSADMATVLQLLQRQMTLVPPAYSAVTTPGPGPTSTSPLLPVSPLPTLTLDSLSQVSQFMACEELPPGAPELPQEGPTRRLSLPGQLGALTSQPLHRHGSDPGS

As a reminder, the IC50 is the midpoint of a concentration-inhibition curve. Read a high IC50 as lower potency. What is called half-life is the time needed for the level to fall by half in the phase considered. A higher half-life goes with slow decline. What is called bioavailability is dose-corrected exposure relative to a reference, in per cent. High values mean good availability, low ones poor availability. Take `CC(C)[C@@H](CCC(C)(C)N)N1CC2(CCN(c3ncnnc3Oc3ccc(F)cc3-c3cncnc3C3CC3)C2)C1` (single isomer, unassigned) [Compound 37, (*R)-5-(6-(6-(2-(4-cyclopropylpyrimidin-5-yl)-4-fluorophenoxy)-1,2,4-triazin-5-yl)-2,6-diazaspiro[3.4]octan-2-yl)-2,6-dimethylheptan-2-amine]: the IC50 in the data set with OCI-AML3 cells was determined as 430 nM. In addition, in data set [1], the half-life is greater than 12 h and the bioavailability was less than 1%.
Take `CCN(C(=O)c1cc(F)ccc1Oc1nncnc1N1CCC2(C1)CN([C@H](CCCNCCC(F)F)C(C)C)C2)C(C)C.O=C(O)/C=C/C(=O)O` [Compound 114, (R)-2-(5-(2-(6-((3,3-difluoropropyl)amino)-2-methylhexan-3-yl)-2,6-diazaspiro[3.4]octan-6-yl)-1,2,4-triazin-6-yl)oxy)-N-ethyl-5-fluoro-N-isopropylbenzamide fumarate]: the IC50 on hERG was greater than 30200 nM; with OCI-AML3 cells, 42 nM.
Turning to `COCCNCCC[C@H](C(C)C)N1CC2(CCN(c3ncnnc3Oc3ccc(F)cc3C(=O)N(C(C)C)C(C)C)C2)C1` (single isomer, unassigned) [Compound 99, (*R)-5-fluoro-N,N-isopropyl-2-((5-(2-(6-((2-methoxyethyl)amino)-2-methylhexan-3-yl)-2,6-diazaspiro[3.4]octan-6-yl)-1,2,4-triazin-6-yl)oxy)benzamide oxalate], the IC50 was greater than 30200 nM on hERG and 82 nM with OCI-AML3 cells.
In the same order, the values of `CCN(C(=O)c1cc(F)ccc1Oc1nncnc1N1CCC2(C1)CN([C@H](CCCN[C@H](C)COC)C(C)C)C2)C(C)C.O=C(O)/C=C/C(=O)O` [Compound 112, N-ethyl-5-fluoro-N-isopropyl-2-(5(2-((R)-6-(((R)-1-methoxypropan-2-yl)amino)-2-methylhexan-3-yl)-2,6-diazaspiro[3.4]octan-6-yl)-1,2,4-triazin-6-yl)oxy)benzamide fumarate] are greater than 30200 nM and 81 nM.
At hERG, `CCN(C(=O)c1cc(F)ccc1Oc1nncnc1N1CCC2(C1)CN([C@H](CCCNCC(OC)OC)C(C)C)C2)C(C)C.O=C(O)/C=C/C(=O)O` [Compound 104, (R)-2-((5-(2-(6-((2,2-dimethoxyethyl)amino)-2-methylhexan-3-yl)-2,6-diazaspiro[3.4]octan-6-yl)-1,2,4-triazin-6-yl)oxy)-N-ethyl-5-fluoro-N-isopropylbenzamide fumarate] registered an IC50 greater than 30200 nM. Besides, the IC50 in the data set with OCI-AML3 cells was found to be 150 nM. In data set [1], this compound had a half-life of 8.7 h and a bioavailability of 6.1%.
In the case of `CCN(C(=O)c1cc(F)ccc1Oc1nncnc1N1CCC2(C1)CN([C@H](CCCN(C)CCNC(C)=O)C(C)C)C2)C(C)C.O=C(O)/C=C/C(=O)O` [Compound 245, (R)-2-((5-(2-(6-((2-acetamidoethyl)(methyl)amino)-2-methylhexan-3-yl)-2,6-diazaspiro[3.4]octan-6-yl)-1,2,4-triazin-6-yl)oxy)-N-ethyl-5-fluoro-N-isopropylbenzamide fumarate], at hERG, the IC50 was greater than 30200 nM. In the data set on OCI-AML3 cells, this compound yielded an IC50 of 430 nM. In data set [1], this compound showed a half-life of 7 h and a bioavailability of less than 1%.
The compound `CCN(C(=O)c1cc(F)ccc1Oc1nncnc1N1CCC2(C1)CN([C@H](CCCN)C(C)C)C2)C(C)C` [Compound 1, (R)-2-((5-(2-(6-amino-2-methylhexan-3-yl)-2,6-diazaspiro[3.4]octan-6-yl)-1,2,4-triazin-6-yl)oxy)-N-ethyl-5-fluoro-N-isopropylbenzamide formate] gave an IC50 in the data set on OCI-AML3 cells of 170 nM. In data set [1], the half-life is 15 h and the bioavailability is less than 1%.
For the compound `CCN(C(=O)c1cc(F)ccc1Oc1nncnc1N1CCC2(C1)CN([C@H](CCCN(C)CCC(=O)N(C)C)C(C)C)C2)C(C)C` [Compound 246, (R)-2-((5-(2-(6-((3-(dimethylamino)-3-oxopropyl)(methyl)amino)-2-methylhexan-3-yl)-2,6-diazaspiro[3.4]octan-6-yl)-1,2,4-triazin-6-yl)oxy)-N-ethyl-5-fluoro-N-isopropylbenzamide formate], the IC50 on hERG is greater than 30200 nM; with OCI-AML3 cells, 380 nM.
